Data: patent US10335372B2, “Compositions with modified nucleases targeted to viral nucleic acids and methods of use for prevention and treatment of viral diseases” (priority 2004, dated 2019)

Test system: FMDV of O-type
Conditions: guinea pig, in vivo

RNase: recombinant / wild-type human RNase I (Examples 22, 30, 31)
resistance to FMD on repeated infection: resistant to FMD following subsequent repeated infection
